Source: ChEMBL document CHEMBL2163308, “Small molecule activators of proteasome-related HslV peptidase” (Bioorg Med Chem Lett, 2012)

Key:
Escherichia coli = assay: Activation of recombinant Escherichia coli HslV expressed in Escherichia coli BL21( DE3) cells using Z-GGL-AMC as substrate by fluorescence analysis
[1] = Activation of recombinant Escherichia coli HslU C-tail expressed in Escherichia coli BL21( DE3) cells using Z-GGL-AMC as substrate by fluorescence analysis

Row | Structure (SMILES) | ED50 (Escherichia coli) [nM] | ED50 [1] [nM]
1 | O=C(N/N=C/c1cc(=O)c2ccccc2o1)c1ccccc1 | 1300 | 2600
2 | O=C(Cn1c(-c2ccccn2)nc2ccccc21)c1ccc(O)c(O)c1 | 600 | 2600
3 | O=c1c2ccccc2nc(-c2ccc([N+](=O)[O-])cc2)n1/N=C/c1c(O)ccc2ccccc12 | 900 | 2600
4 | O=C(Cn1c(-c2ccccn2)nc2ccccc21)c1ccc([N+](=O)[O-])cc1 | 600 | 2600
